Drawing on patent US5073493A, “Monoclonal antibody NKY13” (Ikuo Yamashina, priority 1987, dated 1991), this text covers IC50 for eleven compounds.

The target of one test is NS19-9. Put plainly: Inhibition of NS19-9 binding by sugar chains (same test performed on NS19-9). Conditions: read-out: 50% INHIBITION (μM) NS19-9. The method, then: (§1) Structure of sugar chains recognized by monoclonal antibody NKY13 was investigated on the basis of the inhibition of the binding of the NKY13 to G-50I by the following sugar chains according to the above method. The same test was performed on NS19-9.

Test [1] has as its target binding of the NKY13 to G-50I. Put plainly: Inhibition of the binding of NKY13 to G-50I by sugar chains. More on the design: species or system mouse. The settings on record: inhibition of binding of NKY13 to G-50I by the sugar chain. The method, then:
Bovine serum albumin (1%) is added to wells of poly(vinyl chloride) on which, through the mediation of polylysine and glutaraldehyde, is immobilized mucin-type glycopeptide (G-50I) that is isolated from human intestinal cancer cells SW1116 or LS180. After allowing it to stand for 1 hr, the wells are washed, and then a monoclonal antibody NKY13 is added thereto and allowed to react overnight. After washing the wells, Protein A labelled with ^125 I is added, which is allowed to react for 2 hr. After washing the wells, the affinity of NKY13 is measured, taking as index the radioactivity of ^125 I combined with the well.
as §1

Take `CC(=O)N[C@H]1[C@H](O[C@H]2[C@@H](O)[C@@H](CO)O[C@@H](O[C@H]3[C@H](O)[C@@H](O)C(O)O[C@@H]3CO)[C@@H]2O)O[C@H](CO)[C@@H](O[C@@H]2O[C@@H](C)[C@@H](O)[C@@H](O)[C@@H]2O)[C@@H]1O[C@@H]1O[C@H](CO)[C@H](O)[C@H](O)[C@H]1O[C@@H]1O[C@@H](C)[C@@H](O)[C@@H](O)[C@@H]1O` (stereo partly shown): the IC50 (at NS19-9; in test [1]) was more than 10000 µM in each case.
Take `C[C@@H]1OC(O)[C@@H](O)[C@H](O)[C@@H]1O` (stereo partly drawn) [L-Fucose]: the IC50 at NS19-9 is 14000 µM; in test [1], more than 10000 µM.
The matching figures for `CC(=O)N[C@H]1[C@H]([C@H](O)[C@H](O)CO)OC(O)(C(=O)O)C[C@@H]1O` (stereo partly shown) [NeuAc]: more than 10000 µM and 9000 µM.
The like results for `O=C(CO)N[C@H]1[C@H]([C@H](O)[C@H](O)CO)OC(O)(C(=O)O)C[C@@H]1O` (stereo partly shown) [NeuGc] were, in that order, more than 10000 µM and 9000 µM.
On to `CC(=O)N[C@H]1[C@H](O[C@H]2[C@@H](O)[C@@H](CO)O[C@@H](O[C@H]3[C@H](O)[C@@H](O)C(O)O[C@@H]3CO)[C@@H]2O)O[C@H](CO)[C@@H](O[C@@H]2O[C@@H](C)[C@@H](O)[C@@H](O)[C@@H]2O)[C@@H]1O[C@@H]1O[C@H](CO)[C@H](O)[C@H](O[C@]2(C(=O)O)C[C@H](O)[C@@H](NC(C)=O)[C@H]([C@H](O)[C@H](O)CO)O2)[C@H]1O` (stereo partly shown), for which the figures for the IC50 (at NS19-9; in test [1]) were 11.1 µM and 1.86 µM, respectively.
The like results for `CC(=O)N[C@H]1[C@H](O[C@H]2[C@@H](O)[C@@H](CO)O[C@@H](O[C@H]3[C@H](O)[C@@H](O)C(O)O[C@@H]3CO)[C@@H]2O)O[C@H](CO)[C@@H](O[C@@H]2O[C@@H](C)[C@@H](O)[C@@H](O)[C@@H]2O)[C@@H]1O[C@@H]1O[C@H](CO)[C@H](O)[C@H](O)[C@H]1O` (stereo partly shown) were, in that order, 2320 µM and more than 10000 µM.
The like results for `CC(=O)N[C@H]1[C@H](O[C@H]2[C@@H](O)[C@@H](CO)O[C@@H](O[C@H]3[C@H](O)[C@@H](O)C(O)O[C@@H]3CO)[C@@H]2O)O[C@H](CO[C@]2(C(=O)O)C[C@H](O)[C@@H](NC(C)=O)[C@H]([C@H](O)[C@H](O)CO)O2)[C@@H](O)[C@@H]1O[C@@H]1O[C@H](CO)[C@H](O)[C@H](O)[C@H]1O` (stereo partly shown) were, in that order, more than 10000 µM and more than 10000 µM.
The matching figures for `CC(=O)N[C@H]1[C@H](O[C@H]2[C@@H](O)[C@@H](CO)O[C@@H](O[C@H]3[C@H](O)[C@@H](O)C(O)O[C@@H]3CO)[C@@H]2O)O[C@H](CO)[C@@H](O)[C@@H]1O[C@@H]1O[C@H](CO)[C@H](O)[C@H](O)[C@H]1O` (stereo partly shown): more than 10000 µM and more than 10000 µM.
As for `CC(=O)N[C@H]1[C@H](O[C@H]2[C@@H](O)[C@@H](CO)O[C@@H](O[C@H]3[C@H](O)[C@@H](O)C(O)O[C@@H]3CO)[C@@H]2O)O[C@H](CO)[C@@H](O)[C@@H]1O[C@@H]1O[C@H](CO)[C@H](O)[C@H](O[C@]2(C(=O)O)C[C@H](O)[C@@H](NC(C)=O)[C@H]([C@H](O)[C@H](O)CO)O2)[C@H]1O` (stereo partly shown), the IC50 stood at 3550 µM at NS19-9 and 320 µM in test [1].
The matching figures for `CC(=O)N[C@H]1[C@H](O[C@H]2[C@@H](O)[C@@H](CO)O[C@@H](O[C@H]3[C@H](O)[C@@H](O)C(O)O[C@@H]3CO)[C@@H]2O)O[C@H](CO[C@]2(C(=O)O)C[C@H](O)[C@@H](NC(C)=O)[C@H]([C@H](O)[C@H](O)CO)O2)[C@@H](O)[C@@H]1O[C@@H]1O[C@H](CO)[C@H](O)[C@H](O[C@]2(C(=O)O)C[C@H](O)[C@@H](NC(C)=O)[C@H]([C@H](O)[C@H](O)CO)O2)[C@H]1O` (stereo partly shown): 3550 µM and 320 µM.
The like results for `CC(=O)N[C@H]1[C@H](O[C@H]2[C@@H](O)[C@@H](CO)O[C@@H](O[C@H]3[C@H](O)[C@@H](O)C(O)O[C@@H]3CO)[C@@H]2O)O[C@H](CO)[C@@H](O[C@@H]2O[C@H](CO)[C@H](O)[C@H](O)[C@H]2O)[C@@H]1O[C@@H]1O[C@@H](C)[C@@H](O)[C@@H](O)[C@@H]1O` (stereo partly shown) were, in that order, more than 10000 µM and more than 10000 µM.
